Values of other authors in patent publication US20160184212A1, “PHOTO-ACTIVATED HYDROGELS” (L'Oreal, priority 2014, published 2016).

For O=C1c2ccccc2C(=O)c2cc(S(=O)(=O)[O-])ccc21.[Na+] [anthraquinone-2-sulfonic acid sodium salt], the water solubility is listed as “water soluble”.
